{
  "source": "paper PMC9024361",
  "about": "“Pharmacokinetics, Tissue Distribution, Metabolism and Excretion of a Novel COX-2 Inhibitor, Vitacoxib, in Rats” (Frontiers in Veterinary Science, 2022)",
  "key": {"[1]": {"assay": "Metabolite identification in plasma, bile, urine and feces (UPLC Q-TOF MS)", "format": "in vivo, Wistar rats", "details": "rats; for Source (matrices in which the metabolite was detected): single oral 18 mg/kg vitacoxib, Q-TOF MS; for Share of the metabolite in urinary and fecal excretion: urine and feces, not quantified", "experimental": "Six male rats were placed in their own metabolic cages and orally administered a single dose of 18 mg/kg dose of vitacoxib (tablets crushed and dissolved in 0.5% CMC-Na, 6 mg/ml). Bile, fecal, and urine samples were collected from each animal in metabolic cages at 0~8, 8~23, 23~32, 32~48, 48~58, 58~72, 72~82, 82~96, and 96~128 h after administration. The total weight of urine and feces was recorded after collection. Feces samples were diluted with 3 volumes (v/w) of triple-distilled water and homogenized, and the homogenate was stored at −20°C until further analysis.\nChromatographic separation was performed using an ACQUITY UPLC^TM system (Waters Corporation, Milford, MA, USA). A Waters ACQUITY UPLC HSS T3 column (1.7 μm, 2.1 mm × 100 mm) was used for reversed-phase UPLC and the column temperature was maintained at 40°C. The flow rate of the mobile phase was 0.5 ml/min and the injection volume was 5 μl. Mobile phase A was 0.1% formic acid in water and mobile phase B was 0.1% formic acid in methanol. The column was eluted using a linear gradient (0 → 1 min, phase A 90%; 1 → 10 min, phase A 90% → 5%; 10 → 13.5 min, phase A 5% → 5%; and 13.5 → 15 min, phase A 5% → 90%).\nMS analysis was performed using a Xevo G2-S Q-TOF mass spectrometer. The eluent was not shunted but injected directly into the mass analysis system in the positive-ion mode. The source temperature was set at 120°C. The flow rate of the desolvation gas was 800 L/h at a temperature of 500°C. The capillary voltage was set at 3 kV with 35 V as the cone voltage. Methods to analyze different tissues and samples were developed and validated in our lab. Data were analyzed using Metabolynx^TM software (version 4.1), which could automatically identify metabolites by comparing treatment samples with the respective controls."}, "guinea pigs": {"tested_on": "guinea pigs", "parameters": "method as in PMID 28959651", "details": "cited from earlier work"}, "[2]": {"details": "dog, in vivo, 2 mg/kg; cited from earlier work"}, "rats": {"tested_on": "rats", "assay": "Observation of adverse effects after a single oral dose", "format": "in vivo, Wistar rats", "details": "single oral dose 18 mg/kg BW", "experimental": "(§1) Five male rats were administered a single dose of vitacoxib (18 mg/kg) obtained by crushing and dissolving vitacoxib tablets in 0.5% CMC-Na (6 mg/ml). Blood samples (0.3 ml) were collected via a cannula directly into heparinized tubes before drug administration and 5, 15, 30 min, and 1, 2, 3, 4, 6, 8, 10, 12, 24, 36, and 48 h after drug administration. The samples were centrifuged at 2,280 × g for 10 min as soon as possible and stored at −20°C until further analysis (within 21 days)."}, "[3]": {"assay": "Urinary and fecal excretion of unchanged drug", "format": "in vivo, Wistar rats", "details": "rats", "experimental": "Six male rats were placed in separate metabolic cages and administered a single oral dose of 18 mg/kg of vitacoxib (tablets were crushed and dissolved in 0.5% CMC-Na, 6 mg/ml). Urine and fecal samples were collected from each animal in metabolic cages at different time points at 2, 4, 6, 8, 10, 14, 24, 36, 48, 60, 72, 84, 96, 108, 120, 132, 144, 156, and 168 h after drug administration.\n(§2) Eight male rats with bile-duct cannulation were administered 18 mg/kg of vitacoxib (tablets crushed and dissolved in 0.5% CMC-Na, 6 mg/ml). Rats were housed in metabolism cages and bile samples were collected at 2, 4, 6, 8, 10, 14, 24, 36, 48, 60, and 72 h after drug administration. All samples were stored at −20°C until further analysis. […] Vitacoxib in urine, fecal, and bile samples was determined via validation UPLC-MS/MS using the procedure described for blood ([18])."}, "rats and mice": {"tested_on": "rats and mice", "parameters": "method as in PMID 30128300", "details": "cited from earlier work"}, "Sprague Dawley (SD) rats": {"tested_on": "Sprague Dawley (SD) rats", "details": "rat, in vivo; cited from earlier work"}, "[4]": {"parameters": "method as in PMID 30076623", "details": "horses, 0.1 mg/kg bw; cited from earlier work"}, "[5]": {"assay": "Bile excretion of unchanged drug in bile-duct cannulated rats", "format": "in vivo, Wistar rats", "details": "single oral 18 mg/kg, 0~72 h", "experimental": "as §2"}, "SD rats": {"tested_on": "SD rats", "parameters": "method as in PMID 28238853, PMID 29601910", "details": "repeated dietary administration, cited from earlier work"}, "[6]": {"assay": "Plasma pharmacokinetics after a single oral dose", "format": "in vivo", "details": "male, Wistar, rat, rats, single p.o. 18 mg/kg b.w., n = 5, plasma", "experimental": "as §1\nVitacoxib in plasma samples was analyzed using an established and validated UPLC-MS/MS (Waters Acquity UPLC and Water Quattro Premier, Waters Co., USA) method using a procedure previously described by our group ([18]). The lower limit of quantification was 0.5 ng/ml and the calibration range of the method was 0.5–1,000 ng/ml. Noncompartmental analysis was performed to determine the pharmacokinetic parameters, as appropriate, using WinNonlin^TM (version 6.4, Certara, Princeton NJ, USA) computational software."}, "[7]": {"assay": "Tissue distribution after a single oral dose", "format": "in vivo, Wistar rats", "details": "rats", "experimental": "Eighteen rats were administered a single oral dose (18 mg/kg BW) of vitacoxib (tablets crushed and dissolved in 0.5% CMC-Na, 6 mg/ml). Six rats were euthanized at each time point of 0.25, 6, and 24 h after dose administration. The brain, liver, heart, spleen, lungs, bladder, kidneys, gracilis muscle, gastrointestinal tract, large intestinal contents, small intestine, bone marrow, testes, epididymis, thymus gland, fat, and pancreas were collected and weighed. Each sample was diluted with 3 volumes (v/w) of triple-distilled water and homogenized, and the homogenate was stored at −20°C until further analysis. Vitacoxib in tissue samples was analyzed using UPLC-MS/MS by following a previously described procedure."}, "rabbits": {"tested_on": "rabbits", "parameters": "method as in PMID 28959651", "details": "cited from earlier work"}, "COX-2 [8]": {"tested_on": "COX-2", "parameters": "method as in doi:10.11669/cpj.2013.20.011", "details": "rats, preclinical trials; cited from earlier work"}, "COX-2 [9]": {"tested_on": "COX-2", "parameters": "method as in doi:10.11669/cpj.2013.20.011", "details": "dogs, preclinical trials; cited from earlier work"}, "[10]": {"tested_on": "Institute of Cancer Research (ICR) mice", "details": "mouse, in vivo; cited from earlier work"}},
  "note": "Entries after “also recorded” stand apart in the source; their conditions may differ. Read-outs that look alike come from different tables or passages of the source.",
  "data": [
    {"smiles": "CS(=O)(=O)c1ccc(-n2cnc(Cl)c2-c2ccc(CO)cc2)nc1", "note": "[M1]", "values": [
      {"measurement": "Source (matrices in which the metabolite was detected)", "setting": "[1]", "value": "Plasma, bile, feces, and urine"},
      {"measurement": "Share of the metabolite in urinary and fecal excretion", "setting": "[1]", "value": "minor amount of the dose"}
    ]},
    {"smiles": "CS(=O)(=O)c1ccc(-n2cnc(Cl)c2-c2ccc(C(=O)O)cc2)nc1", "note": "[M2, 4-(4-chloro-1-(5-(methylsulfonyl)pyridin-2-yl)-1H-imidazol-5-yl) benzoic acid]", "values": [
      {"measurement": "Source (matrices in which the metabolite was detected)", "setting": "[1]", "value": "Bile, feces, and urine"},
      {"measurement": "Share of the metabolite in urinary and fecal excretion", "setting": "[1]; listed as carboxylic acid derivative", "value": "major metabolite"},
      {"measurement": "Share of the metabolite in urinary and fecal excretion", "setting": "[1]; listed as carboxylic acid metabolite", "value": "primary metabolite"}
    ]},
    {"smiles": "Cc1ccc(-c2c(Cl)ncn2-c2ccc(S(C)(=O)=O)cn2)cc1", "note": "[vitacoxib, 2-(4-chloro-5-p-tolyl-1H-imidazol-1-yl)-5-(methylsulfonyl) pyridine]", "values": [
      {"measurement": "Skin sensitization", "setting": "guinea pigs", "value": "does not cause skin irritation in rabbits or skin sensitization"},
      {"measurement": "T1/2λz", "setting": "[2]", "value": "5. 87 ± 3. 37 h"},
      {"measurement": "Adverse effects", "setting": "rats", "value": "No obvious or serious adverse effects; also recorded: no adverse effects"},
      {"measurement": "Cumulative excretion in feces in unaltered form", "setting": "[3]; single oral 18 mg/kg, 0~168 h", "value": "4.7334% ± 1.6645%"},
      {"measurement": "Cumulative excretion in urine in unaltered form", "setting": "[3]; single oral 18 mg/kg, 0~168 h", "value": "0.0135% ± 0.0053%"},
      {"measurement": "Dose recovered in the urine or feces as the parent drug", "setting": "[3]; single oral dose", "value": "< 5", "unit": "%"},
      {"measurement": "Mutagenicity", "setting": "rats and mice", "value": "No mutagenicity or teratogenicity"},
      {"measurement": "Teratogenicity", "setting": "rats and mice", "value": "No mutagenicity or teratogenicity"},
      {"measurement": "Oral LD50", "setting": "Sprague Dawley (SD) rats", "value": "> 5,000 mg/kg body weight (BW)"},
      {"measurement": "T1/2λz", "setting": "[4]", "value": "7.39 ± 4.17", "unit": "h"},
      {"measurement": "Cumulative excretion in bile in unaltered form", "setting": "[5]", "value": "0.0261% ± 0.00627%"},
      {"measurement": "No-observed-adverse-effect-level (90 days)", "setting": "SD rats; 90 days", "value": 20, "unit": "mg/kg"},
      {"measurement": "No-observed-adverse-effect-level (180 days)", "setting": "SD rats; 180 days", "value": 6, "unit": "mg/kg BW/day"},
      {"measurement": "Tmax", "setting": "[6]; plasma, 18 mg/kg", "value": "~5", "unit": "h"},
      {"measurement": "AUC(0-inf)", "setting": "[6]; 0 to infinity, read-out: AUCINF_obs", "value": "4930 ± 588", "unit": "ng·h/mL"},
      {"measurement": "AUC(0-t)", "setting": "[6]; 0 to last point", "value": "4900 ± 604", "unit": "ng·h/mL"},
      {"measurement": "k el", "setting": "[6]; noncompartmental, read-out: λz (elimination rate constant) (converted)", "value": "4.44e-05", "unit": "s⁻¹"},
      {"measurement": "Cmax", "setting": "[6]; read-out: Cmax (maximum plasma concentration)", "value": "450 ± 96.2", "unit": "ng/mL"},
      {"measurement": "MRT last", "setting": "[6]; read-out: MRTlast (mean residence time)", "value": "8.09 ± 1.72", "unit": "h"},
      {"measurement": "half-life", "setting": "[6]; read-out: T1/2λz (elimination half-life) (converted)", "value": "4.25 ± 0.3", "unit": "h"},
      {"measurement": "Crossing of the intestinal barrier", "setting": "[7]; single oral dose 18 mg/kg BW", "value": "could cross the intestinal barrier"},
      {"measurement": "Time by which vitacoxib was detected in most tissues", "setting": "[7]; single oral dose 18 mg/kg BW", "value": "≤ 15", "unit": "min"},
      {"measurement": "Concentration in most tissues by 24 h after administration", "setting": "[7]; single oral dose 18 mg/kg BW, 24 h", "value": "below the limit of detection"},
      {"measurement": "Presence in brain / crossing of blood-brain barrier", "setting": "[7]; single oral dose 18 mg/kg BW, 18 mg/kg", "value": "found in the brain; also recorded: cross the blood-brain barrier"},
      {"measurement": "Order of AUC(0~24h) values in different tissues", "setting": "[7]; single oral gavage dose 18 mg/kg bw", "value": "gastric contents > large intestinal contents > small intestinal contents > stomach > large intestine > pancreas > liver > small intestine > fat > lungs > spleen > brain > plasma > testes > kidneys > spinal cord > thymus > bones > heart > spermatic > skeletal muscles > bladder"},
      {"measurement": "Skin irritation", "setting": "rabbits", "value": "does not cause skin irritation"},
      {"measurement": "COX-2 inhibition (specificity)", "setting": "COX-2 [8]", "value": "specifically inhibits COX-2"},
      {"measurement": "COX-2 inhibition (specificity)", "setting": "COX-2 [9]", "value": "specifically inhibits COX-2"},
      {"measurement": "Oral LD50", "setting": "[10]", "value": "> 5,000 mg/kg body weight (BW)"}
    ]}
  ]
}
